Where two headings read alike, the source gives them in different places. Values belong to the molecule of their own block, whether it stands above or below them.
T1: Mpc1 (Mpc1/Mpc3 hetero-dimer, mitochondrial pyruvate carrier) (Saccharomyces cerevisiae, UniProt P53157+P53311)
T1 construct: Mpc1/Mpc3 hetero-complex, untagged Mpc1 co-expressed with C-terminally tagged Mpc3, reconstituted in liposomes; with Mpc3 (P53311)
T1 sequence (P53157 1-130): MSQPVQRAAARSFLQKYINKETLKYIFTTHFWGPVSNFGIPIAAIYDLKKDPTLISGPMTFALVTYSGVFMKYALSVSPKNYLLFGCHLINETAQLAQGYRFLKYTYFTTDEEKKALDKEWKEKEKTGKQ
T1 sequence (P53311 21-146): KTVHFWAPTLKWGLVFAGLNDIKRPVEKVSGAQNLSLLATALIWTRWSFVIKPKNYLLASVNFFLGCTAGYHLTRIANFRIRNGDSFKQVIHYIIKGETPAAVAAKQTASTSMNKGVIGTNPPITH

T2: Mpc2 (Mpc1/Mpc2 hetero-complex, MPCFERM) (Saccharomyces cerevisiae, UniProt P38857+P53157)
T2 construct: Mpc1/Mpc2 hetero-complex with C-terminally tagged Mpc2, reconstituted in liposomes; with Mpc1 (P53157)
T2 sequence (P38857 1-129): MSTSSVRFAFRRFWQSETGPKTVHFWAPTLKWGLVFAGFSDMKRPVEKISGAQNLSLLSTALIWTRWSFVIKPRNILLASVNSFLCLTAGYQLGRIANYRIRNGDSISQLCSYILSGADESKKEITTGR
T2 sequence (P53157 1-130): T1 sequence (P53157 1-130)

T3: Mpc3 with a C-terminal Factor Xa cleavage site and octa-histidine tag (S. cerevisiae, UniProt P53311 1-146)
T3 construct: Mpc3, S. cerevisiae, UniProt P53311; codon-optimised synthetic gene; This is the tagged form as captured on the nickel resin; The complex was then released by on-column Factor Xa cleavage; also called Mpc3his; histidine-tagged Mpc3; source: S. cerevisiae mitochondria (SHY15 or W303-1B), co-expressed from pBEVY-GU with untagged Mpc1; LMNG-solubilised mitochondria, captured on nickel …
T3 sequence (looked up): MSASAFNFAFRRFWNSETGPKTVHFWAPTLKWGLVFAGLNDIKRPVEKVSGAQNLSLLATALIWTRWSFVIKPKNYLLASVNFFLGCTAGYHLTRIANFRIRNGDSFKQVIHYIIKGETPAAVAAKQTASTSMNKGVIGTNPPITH

B1: Mpc3 after nickel-affinity purification and Factor Xa cleavage of the histidine tag (natural protein, S. cerevisiae, UniProt P53311 1-146, looked up)
chain: T3 sequence (looked up)
notes: Mpc3, S. cerevisiae, UniProt P53311; codon-optimised synthetic gene; theoretical mass 17.1 kDa; Same construct as m2 after tag removal; The residues IEGR of the Factor Xa site probably remain at the C-terminus after cleavage (surmised); source: S. cerevisiae mitochondria (with Mpc1: W303-1B or SHY15; alone: SHY15), purified (nickel Sepharose, on-column Factor Xa cleavage) in LMNG and tetraoleoyl …
B2: Mpc1 (Mpc1/Mpc3 hetero-dimer, mitochondrial pyruvate carrier) (Saccharomyces cerevisiae S288C) (protein)
chain 1: T1 sequence (P53157 1-130)
chain 2: T1 sequence (P53311 21-146)
notes: Mpc1/Mpc3 hetero-complex, untagged Mpc1 co-expressed with C-terminally tagged Mpc3, reconstituted in liposomes; with Mpc3 (P53311)
B3: Mpc1 (untagged), mitochondrial pyruvate carrier protein 1 from Saccharomyces cerevisiae (natural protein, S. cerevisiae, UniProt P53157 1-130, looked up)
chain: T1 sequence (P53157 1-130)
notes: Mpc1, S. cerevisiae, UniProt P53157; codon-optimised synthetic gene; theoretical mass 15 kDa; also called unmodified Mpc1; source: S. cerevisiae mitochondria (SHY15 or W303-1B), co-expressed from pBEVY-GU with histidine-tagged Mpc3 or Mpc2; co-purified on nickel Sepharose in LMNG and tetraoleoyl cardiolipin

Tests used:
[1] = biological target: T1, Mpc1 (Mpc1/Mpc3 hetero-dimer, mitochondrial pyruvate carrier); experiment: […]-pyruvate homo-exchange inhibition in proteoliposomes; assay type: biochemical
[2] = biological target: T2, Mpc2 (Mpc1/Mpc2 hetero-complex, MPCFERM); experiment: time course of pyruvate homo-exchange in proteoliposomes at ΔpH […]; assay type: biochemical
[3] = biological target: the molecule itself; experiment: SEC-MALS; SEC-MALLS, Superdex 200 10/300 GL; 20 mM Tris-HCl pH 7.4, 150 mM NaCl, 0.005% LMNG, 0.005 mg/ml TOCL; nickel-affinity-purified Mpc1/Mpc3 complex or Mpc3 alone injected; protein-conjugate method
purified protein = substrate: CC(=O)C(=O)O; experiment: purified protein; assay type: biochemical, Saccharomyces cerevisiae
[4] = biological target: T3, Mpc3 with a C-terminal Factor Xa …; experiment: pull-down; nickel-affinity co-purification: untagged Mpc1 co-expressed with His8-tagged partner in yeast mitochondria; solubilised in 1% LMNG, 20 mM Tris-HCl pH 7.4, 150 mM NaCl, 4 °C; bound to nickel Sepharose, washed with 40 mM imidazole, 0.1% LMNG, 0.1 mg/ml TOCL; released by on-column Factor Xa cleavage; SDS-PAGE with Coomassie stain and peptide mass fingerprinting; Mpc1/Mpc3 also purified in Triton X-100, DMNG …; conditions: partners not purified
[5] = biological target: B1; experiment: SEC-MALS; SEC-MALLS, Superdex 200 10/300 GL; 20 mM Tris-HCl pH 7.4, 150 mM NaCl, 0.005% LMNG, 0.005 mg/ml TOCL; nickel-affinity-purified Mpc1/Mpc3 complex or Mpc3 alone injected; protein-conjugate method; conditions: both partners purified

IC50 ([1]; read-out: IC50): 27 ± 13 µM
Molecule: CN(Cc1ccccc1)c1ccc2cc(C(=O)O)c(=O)oc2c1 [7ACC2]

IC50 ([1]; read-out: IC50): 9 ± 7 µM
Molecule: N#C/C(=C\c1cn(-c2ccccc2)c2ccccc12)C(=O)O [UK5099]

Molecule: O=C(O)c1nn(Cc2ccc(Cl)cc2Cl)c2ccccc12 [lonidamine]
IC50 [1]: 118 ± 24 µM

Molecule: CC(=O)C(=O)O [pyruvate]
time course of pyruvate homo-exchange in proteoliposomes at ΔpH 1.6 [2]: the Mpc1/Mpc2 hetero‐complex was also active for ΔpH‐dependent pyruvate transport (Fig EV4D)

Molecule: B1
stoichiometry N [3]: 2

Molecule: B2
Km (purified protein): 342 ± 58 µM

Molecule: B3
stoichiometry N [4]: 1 Mpc1:Mpc3
stoichiometry N [5]: 1 Mpc1:Mpc3
